Experimental data as given in US20040197784A1, “Retinoid inducible proteins of vascular smooth muscle cells and uses thereof” (priority 2001, published 2004).
One block for each molecule: values may come before it.

Tests used:
RASMC [1] = test: Northern blotting of atRA-induced retinoid-response gene mRNA in cultured RASMC; conditions: for expression of this gene set (the 14 atRA-inducible clones): Northern blot; for Peak Fold Induction: 2×10^−6 mol/L atRA
Protocol: Rat aortic smooth muscle cells (“RASMC”) were stimulated with atRA for the indicated times and then processed for total RNA isolation and Northern blotting. Two duplicate blots were then sequentially hybridized to each of the 14 cDNAs. Scanning densitometry was performed at each time point and normalized to the corresponding GAPDH signal to ascertain the peak mRNA induction value listed in Table 2.
Cultured rat aortic SMC (RASMC) were derived from aortas of male Sprague-Dawley rats by a combined explant-enzymatic digestion procedure as described previously (Miano et al., “Expression of the Smooth Muscle Cell Calponin Gene Marks the Early Cardiac and Smooth Muscle Cell Lineages During Mouse Embryogenesis,” J. Biol. Chem. 271:7095-7103 (1996), which is hereby incorporated by reference in its entirety). These cells were grown in Dulbecco's Modified Eagle's Medium (DMEM) supplemented with 10% fetal bovine serum (FBS), 2 mM L-glutamine and antibiotics. […] Unless indicated otherwise, cells were grown on 100-mm dishes and treated with either 2×10^−mol/L all-trans-retinoic acid (atRA) or an equal volume of dimethylsulfoxide (DMSO) for various times when culture was 70-80% confluent.
Total RNA from cultured RASMC and rat tissues was isolated by the acid phenol-guanidinium isothiocyanate method (Chomczynski et al., “Single-Step Method of RNA Isolation by Acid Guanidinium Thiocyanate-Phenol-Chloroform Extraction,” Anal. Biochem. 162:156-159 (1987), which is hereby incorporated by reference in its entirety). […] Independent samples of RNA were also obtained from RASMC treated for 3, 6, 12, 24, 48, 72, 96, and 120 hr with 2×10^−6 mol/L atRA to obtain a temporal pattern of expression for each positive clone. In some experiments the effects of cycloheximide (CHX, 2.5 μg/ml) on atRA-induced gene expression were examined. […] Total RNA was size-fractionated in 1.2% agarose-formaldehyde gels, transferred to nylon membranes and then hybridized and washed following standard procedures (ExpressHyb™, CLONTECH, Palo Alto, Calif.). A rat glyceraldehyde phosphate dehydrogenase (GAPDH) or 18 S probe was used as an internal control for RNA loading. Autoradiography was performed and exposure times varied so that band intensities could be reliably quantitated using NIH Image 1.60 analysis software.

RASMC [2] = test: Cycloheximide (CHX) effects on atRA inducible gene expression, Northern blot; assay type: cell-based, rat; conditions: 2.5 μg/ml CHX
Protocol: All 4 genes show atRA-induced mRNA expression after 24 hr stimulation. […] SALF and Src-Suppressed C Kinase Substrate (“SSeCKS”) mRNA induction, however, is protein synthesis-independent. Refer to Table 2 for a complete summary of the CHX sensitivity studies.
To determine whether atRA-induced gene expression required de novo protein synthesis, rat aorta smooth muscle cell tissue was incubated with atRA in the absence or presence of cycloheximide (“CHX”) and then measured the expression of each atRA-inducible gene. […] On the other hand, atRA-induced Stoned B/TFIIAα/β-like factor (“SALF”) and Src Suppressed C Kinase Substrate (“SSeCKS”) mRNA were not blocked with CHX. In fact, there was a slight super-induction of these genes with CHX, shown in FIG. 6, which is a common characteristic of immediate early genes.

RASMC [3] = test: RISC mRNA expression after atRA, Northern blotting, RASMC; assay type: cell-based, rat
Protocol: FIGS. 9A-B show the induction of retinoid inducible serine carboxypeptidase (“RISC”) mRNA expression by atRA in a time-dependent manner. Total RNA isolated from RASMC treated with 2.0 μM atRA for 0, 3, 6, 12, 24, 48, 72, 96, 120 h was analyzed by Northern blotting with a rat RISC cDNA probe. […] Blots were also probed with GAPDH as a control for equal loading for each lane. Data shown are representative of two independent experiments.
(§1) 10-20 μg of total RNA from RASMC, PAC-1 SMC, hCASMC or rat tissues was fractionated on 1.1% agarose gel in the presence of 0.66 mol/L formaldehyde, transferred to nylon membrane, and hybridized with a 405 nt RISC cDNA probe labeled with α-^32P-dCTP. For human tissue Northern blotting, a Human Multiple Tissue Northern Blot was obtained from CLONTECH and hybridized with a human RISC DNA probe, cloned from a human BAC (AC007114; obtained from Research Genetics, Inc., Huntsville, Ala.) by PCR. Hybridizations were carried out in Rapid-hyb buffer (Amersham Life Science, Piscataway, N.J.) or Expresshyb Hybridization Solution (CLONTECH, Palo Alto, Calif.) containing labeled probe (˜2×10^6 cpm/ml) at 62-68° C. for 1-2 h or overnight, depending on the probe used. The blots were then washed under stringent conditions and exposed to Kodak XAR films for different lengths of time. Housekeeping genes used as internal controls for equal RNA loading included glyceraldehyde 3-phosphate dehydrogenase (GAPDH), 18 S rRNA, and β-actin.

[4] = system: de novo protein synthesis; test: CHX effect on de novo protein synthesis and cytotoxicity; assay type: cell-based; conditions: CHX 2.5 μg/ml
Protocol: In some experiments the effects of cycloheximide (CHX, 2.5 μg/ml) on atRA-induced gene expression were examined.

hCASMC = test: RISC mRNA expression after atRA, Northern blotting, hCASMC; assay type: cell-based, human
Protocol: as §1

PAC-1 SMC = test: RISC mRNA expression after atRA, Northern blotting, PAC-1 SMC; assay type: cell-based, rat
Protocol: as §1

ERK = test: RISC attenuation of ERK activity (phospho-ERK immunoblot); assay type: cell-based, rat; conditions: RISC expressing cells vs mock cells; 30 minutes after serum stimulation
Protocol: Stable cell lines prepared according to Example 3 were grown to subconfluence and made quiescent by serum withdrawal (typically 0.5% FBS for 24-48 hours). Cells were then stimulated with serum or a purified growth factor (PDGF-BB) to stimulate the ERK pathway. At selected times following such stimulation, standard cell extracts were prepared to analyze the activation of ERK as measured by its phosphorylated state with a phospho-specific antibody.

PAC1 SMC = test: Growth of PAC1 SMC stably transfected with RISC (cell counts over 5 days); assay type: cell-based, rat; conditions: three stably transfected RISC cell lines, 10% FBS, vs empty vector (mock)
Protocol: Rat or human RISC is cloned into a suitable mammalian expression plasmid including, but not limited to, pEF1/V5-His, and verified for expression by Western blotting (using an antibody that binds the His tag of the RISC-His fusion protein) of transiently-transfected cells. For transient transfection, subconfluent cells are overlayed with a DNA-calcium-phosphate coprecipitate containing the RISC expression plasmid and then allowed to incubate overnight The following day, cells are washed with phosphate-buffered saline and re-fed fresh growth medium for an additional 24-48 hours whereupon standard cell lysates are made for protein analysis via Western blotting. […] Following two weeks of selection in G418, resistant cell “clones” cartying the RISC-His fusion protein are isolated and expanded for further analysis.
Each of three stably transfected cell lines were grown in the presence of 10% FBS for 5 days and on each day total cell numbers were calculated with a hemocytometer. […] A graph illustrating the effects on SMC growth is shown at FIG. 17.

Molecule: CC1=C(/C=C/C(C)=C/C=C/C(C)=C\C(=O)O)C(C)(C)CCC1 [13-cis RA]
- expression of this gene set (the 14 atRA-inducible clones) (RASMC [1]): elevated

Molecule: C[C@@H]1C[C@@H]([C@H](O)CC2CC(=O)NC(=O)C2)C(=O)[C@@H](C)C1 [CHX, cycloheximide]
- CHX Inhibit (atRA-induced mRNA expression) (RASMC [2]; Cathepsin-L mRNA): Yes
- CHX Inhibit (atRA-induced mRNA expression) (RASMC [2]; Ceruloplasmin mRNA): Yes
- CHX Inhibit (atRA-induced mRNA expression) (RASMC [2]; Endolyn mRNA): No
- CHX Inhibit (atRA-induced mRNA expression) (RASMC [2]; Epithelin mRNA): Yes
- CHX Inhibit (atRA-induced mRNA expression) (RASMC [2]; Importin α mRNA): Yes
- CHX Inhibit (atRA-induced mRNA expression) (RASMC [2]; LDH-B mRNA): Yes
- CHX Inhibit (atRA-induced mRNA expression) (RASMC [2]; LOX-1 mRNA): No
- CHX Inhibit (atRA-induced mRNA expression) (RASMC [2]; RDH mRNA): Yes
- CHX Inhibit (atRA-induced mRNA expression) (RASMC [2]; SALF mRNA): not blocked and No
- CHX Inhibit (atRA-induced mRNA expression) (RASMC [2]; SSAT mRNA): attenuated and completely blocked and Yes
- CHX Inhibit (atRA-induced mRNA expression) (RASMC [2]; SSeCKS mRNA): not blocked and No
- CHX Inhibit (atRA-induced mRNA expression) (RASMC [2]; VCAM-1 mRNA): Yes
- CHX Inhibit (atRA-induced mRNA expression) (RASMC [2]; tTG mRNA): No
- CHX Inhibit (atRA-induced mRNA expression) (RASMC [2]; α8-integrin mRNA): attenuated and completely blocked and Yes
- CHX effect on atRA-increased RISC expression (RASMC [3]; 24 hours following treatment): No change in RISC expression
- CHX effect on atRA-increased RISC expression (RASMC [3]; 48 hr following atRA treatment): blocked increased RISC expression
- overt cytotoxicity [4]: without any signs of overt cytotoxicity
- reduction of de novo protein synthesis [4]: more than 90%

- Peak Fold Induction (RASMC [1]; Cathepsin-L mRNA, peak at 72 hr, relative to 0 time point): 3.5 (72 hr) fold
- Peak Fold Induction (RASMC [1]; Ceruloplasmin mRNA, peak at 72 hr, relative to 0 time point): 2.0 (72 hr) fold
- Peak Fold Induction (RASMC [1]; Endolyn mRNA, peak at 96 hr, relative to 0 time point): 2.0 (96 hr) fold
- Peak Fold Induction (RASMC [1]; Epithelin mRNA, peak at 48 hr, relative to 0 time point): 2.9 (48 hr) fold
- Peak Fold Induction (RASMC [1]; Importin α mRNA, peak at 12 hr, relative to 0 time point): 4.0 (12 hr) fold
- Peak Fold Induction (RASMC [1]; LDH-B mRNA, peak at 24 hr, relative to 0 time point): 4.6 (24 hr) fold
- Peak Fold Induction (RASMC [1]; LOX-1 mRNA, peak at 3 hr, relative to 0 time point): 7.2 (3 hr) fold
- Peak Fold Induction (RASMC [1]; RDH mRNA, peak at 48 hr, relative to 3 hr time point as baseline): >2.8 (48 hr) fold
- Peak Fold Induction (RASMC [1]; SALF mRNA, peak at 3 hr, relative to 0 time point): 4.1 (3 hr) fold
- Peak Fold Induction (RASMC [1]; SSAT mRNA, peak at 48 hr, relative to 0 time point): 4.8 (48 hr) fold
- Peak Fold Induction (RASMC [1]; SSeCKS mRNA, peak at 12 hr, relative to 0 time point): 4.8 (12 hr) fold
- Peak Fold Induction (RASMC [1]; VCAM-1 mRNA, peak at 96 hr, relative to 0 time point): 2.5 (96 hr) fold
- Peak Fold Induction (RASMC [1]; tTG mRNA, peak at 12 hr, relative to 3 hr time point as baseline): >4.0 (12 hr) fold
- Peak Fold Induction (RASMC [1]; α8-integrin mRNA, peak at 72 hr, relative to 0 time point): 2.4 (72 hr) fold
Molecule: CC1=C(/C=C/C(C)=C/C=C/C(C)=C/C(=O)O)C(C)(C)CCC1 [atRA, all-trans-retinoic acid]
- RISC mRNA following atRA stimulation (hCASMC): increases in RISC mRNA
- RISC mRNA following atRA stimulation (PAC-1 SMC): increases in RISC mRNA
- time of peak increase in RISC mRNA following atRA stimulation (RASMC [3]): around 4 days
- RISC mRNA levels (RASMC [3]; 2.0 μM atRA, fresh atRA applied daily, 5 day time course): increased progressively

Molecule: CC1=C(/C=C/C(C)=C/C=C/C(C)=C/C(=O)Nc2ccc(O)cc2)C(C)(C)CCC1 [4-Hydroxyphenylretinamide]
- expression of this gene set (the 14 atRA-inducible clones) (RASMC [1]): elevated

B1: RISC: retinoid inducible serine carboxypeptidase protein, expressed as RISC-His fusion protein in stably transfected PAC1 SMC (protein, UniProt Q920A6 29-452, looked up)
Retinoid-inducible serine …: LNWREQEGKEVWDYVTVREDARMFWWLYYATNPCKNFSELPLVMWLQGGPGGSSTGFGNFEEIGPLDTRLKPRNTTWLQWASLLFVDNPVGTGFSYVNTTDAYAKDLDTVASDMMVLLKSFFDCHKEFQTVPFYIFSESYGGKMAAGISLELHKAIQQGTIKCNFSGVALGDSWISPVDSVLSWGPYLYSVSLLDNKGLAEVSDIAEQVLNAVNKGFYKEATQLWGKAEMIIEKNTDGVNFYNILTKSTPDTSMESSLEFFRSPLVRLCQRHVRHLQGDALSQLMNGPIKKKLKIIPDDVSWGAQSSSVFISMEEDFMKPVIDIVDTLLELGVNVTVYNGQLDLIVDTIGQESWVQKLKWPQLSRFNQLKWKALYTNPKSSETSAFVKSYENLAFYWILKAGHMVPADQGDMALKMMRLVTQQE
modifications: His tag
notes: retinoid inducible serine carboxypeptidase protein, expressed as RISC-His fusion protein in stably transfected PAC1 SMC
- phospho-ERK activation (ERK): activated less phospho-ERK
- cell growth (total cell numbers by hemocytometer) (PAC1 SMC): significant inhibition in cell growth
